Key:
[1] = target: T1, M-phase inducer phosphatase 2 (Homo sapiens, UniProt P30305); experiment: Inhibitory concentration to human cell division cycle 25B (Cdc25B)
T1 sequence (P30305 whole entry): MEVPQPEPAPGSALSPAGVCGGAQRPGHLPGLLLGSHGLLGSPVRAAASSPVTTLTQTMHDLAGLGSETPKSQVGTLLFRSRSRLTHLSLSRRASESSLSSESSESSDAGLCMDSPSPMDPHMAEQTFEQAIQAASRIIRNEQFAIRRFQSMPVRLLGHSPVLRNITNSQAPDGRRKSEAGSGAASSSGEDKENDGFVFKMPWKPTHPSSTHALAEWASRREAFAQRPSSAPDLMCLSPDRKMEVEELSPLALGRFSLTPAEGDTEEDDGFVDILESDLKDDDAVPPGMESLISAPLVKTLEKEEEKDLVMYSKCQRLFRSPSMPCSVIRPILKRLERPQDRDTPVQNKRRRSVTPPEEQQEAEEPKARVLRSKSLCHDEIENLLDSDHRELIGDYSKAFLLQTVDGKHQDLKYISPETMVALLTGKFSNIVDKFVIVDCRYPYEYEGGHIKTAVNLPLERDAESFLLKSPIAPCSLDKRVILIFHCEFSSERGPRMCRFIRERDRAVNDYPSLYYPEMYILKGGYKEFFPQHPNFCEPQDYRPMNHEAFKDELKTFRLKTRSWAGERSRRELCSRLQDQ

[2] = target: Receptor-type tyrosine-protein phosphatase alpha (Homo sapiens) (UniProt P18433); experiment: Selectivity against protein tyrosine phosphatase alpha
[3] = target: Serine/threonine-protein phosphatase 2A catalytic subunit alpha isoform (Bos taurus) (UniProt P67774); experiment: Selectivity against protein phosphatase 2A
[4] = target: T2, Tyrosine-protein phosphatase non-receptor type 1 (Homo sapiens) (UniProt P18031); experiment: Selectivity against protein tyrosine phosphatase 1B
T2 sequence (whole entry): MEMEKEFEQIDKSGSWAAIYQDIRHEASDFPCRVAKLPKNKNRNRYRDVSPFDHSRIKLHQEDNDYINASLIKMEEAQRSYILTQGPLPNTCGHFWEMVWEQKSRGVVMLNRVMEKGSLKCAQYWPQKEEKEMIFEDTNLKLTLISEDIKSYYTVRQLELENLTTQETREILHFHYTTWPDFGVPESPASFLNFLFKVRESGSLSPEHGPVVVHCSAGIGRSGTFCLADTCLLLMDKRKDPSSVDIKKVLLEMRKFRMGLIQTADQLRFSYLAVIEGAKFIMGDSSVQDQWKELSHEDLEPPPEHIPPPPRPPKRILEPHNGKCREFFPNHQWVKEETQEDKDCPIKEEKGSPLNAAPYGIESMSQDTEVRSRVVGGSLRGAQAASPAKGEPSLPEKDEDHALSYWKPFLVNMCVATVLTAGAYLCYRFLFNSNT

Chain of Serine/threonine-protein phosphatase 2A catalytic subunit alpha isoform (Bos taurus) (P67774 whole entry, canonical isoform): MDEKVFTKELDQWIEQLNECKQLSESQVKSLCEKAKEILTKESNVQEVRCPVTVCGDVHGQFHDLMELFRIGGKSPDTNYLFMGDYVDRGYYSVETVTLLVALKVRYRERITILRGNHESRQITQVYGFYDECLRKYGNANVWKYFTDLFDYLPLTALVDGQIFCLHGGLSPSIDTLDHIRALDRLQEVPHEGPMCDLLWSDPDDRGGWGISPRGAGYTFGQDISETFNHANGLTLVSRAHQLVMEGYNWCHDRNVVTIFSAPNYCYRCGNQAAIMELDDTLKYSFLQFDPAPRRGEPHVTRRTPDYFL
Chain of Receptor-type tyrosine-protein phosphatase alpha (Homo sapiens) (P18433 20-802 limits assumed): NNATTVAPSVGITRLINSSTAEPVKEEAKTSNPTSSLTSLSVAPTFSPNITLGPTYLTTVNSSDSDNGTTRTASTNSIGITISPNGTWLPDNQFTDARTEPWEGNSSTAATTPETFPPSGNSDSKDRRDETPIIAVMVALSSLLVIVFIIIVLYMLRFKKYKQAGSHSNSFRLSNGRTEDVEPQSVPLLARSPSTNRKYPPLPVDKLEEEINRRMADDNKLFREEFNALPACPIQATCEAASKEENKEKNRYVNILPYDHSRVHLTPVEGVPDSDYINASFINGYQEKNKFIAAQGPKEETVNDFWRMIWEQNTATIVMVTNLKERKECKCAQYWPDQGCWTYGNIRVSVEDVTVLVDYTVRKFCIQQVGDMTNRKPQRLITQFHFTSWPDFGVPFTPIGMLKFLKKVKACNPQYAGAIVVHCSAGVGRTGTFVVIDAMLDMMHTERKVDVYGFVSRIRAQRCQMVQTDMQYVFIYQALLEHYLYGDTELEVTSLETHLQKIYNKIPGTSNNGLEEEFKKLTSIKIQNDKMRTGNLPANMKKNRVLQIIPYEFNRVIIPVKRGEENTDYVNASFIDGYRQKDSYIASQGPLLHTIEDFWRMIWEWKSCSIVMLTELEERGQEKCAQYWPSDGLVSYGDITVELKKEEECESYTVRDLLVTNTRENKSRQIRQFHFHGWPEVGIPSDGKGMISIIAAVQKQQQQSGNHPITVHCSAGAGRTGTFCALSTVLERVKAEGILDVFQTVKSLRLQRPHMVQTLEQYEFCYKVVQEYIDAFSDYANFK

Structure (SMILES) | IC50 [1] [µM] | Selectivity [2] [µM] | Selectivity [3] [µM] | Selectivity [4] [µM]
C/C1=C/CC[C@]2(C)[C@@H]([C@H](C)COC(=O)c3ccccc3)CC[C@H]2c2ccc(cc2C(=O)O)C[C@@H](O)CC1 | 6.5 |  |  | 
CC(=O)O[C@@]1(C)CC/C(C)=C\CC[C@]2(C)[C@@H]([C@H](C)CCCC(C)C)CC[C@H]2c2ccc(cc2C(C)=O)C1 | > 30 | > 30 | > 30 | > 30
COCc1cc2ccc1[C@@H]1CC[C@H]([C@H](C)CCCC(C)C)[C@@]1(C)CC/C=C(/C)CC[C@](C)(OC(C)=O)C2 | 29 | > 30 | > 30 | > 30
CC(=O)O[C@H]1CC/C(C)=C\CC[C@]2(C)[C@@H]([C@H](C)CCCC(C)C)CC[C@H]2c2ccc(cc2CO)C1 | > 30 | > 30 | > 30 | > 30
CC(C)CCC[C@@H](C)[C@H]1CC[C@H]2c3ccc(cc3C(=O)O)CC(O)CCC(C)CCC[C@]12C (some centres undefined) | 4.9 | > 30 | > 30 | > 30
COC(=O)C(=O)O[C@H]1CC/C(C)=C\CC[C@]2(C)[C@@H]([C@H](C)CCCC(C)C)CC[C@H]2c2ccc(cc2C(=O)O)C1 | 11 | > 30 | > 30 | > 30
Cc1cc2ccc1[C@@H]1CC[C@H]([C@H](C)CCCC(C)C)[C@@]1(C)CCCC(C)CC[C@](C)(O)C2 (some centres undefined) | > 30 | > 30 | > 30 | > 30
COC(=O)c1cc2ccc1[C@@H]1CC[C@H]([C@H](C)CCCC(C)C)[C@@]1(C)CC/C=C(/C)CC[C@H](OC(C)=O)C2 | > 30 | > 30 | > 30 | > 30
C/C1=C/CC[C@]2(C)[C@@H]([C@H](C)CCCC(C)C)CC[C@H]2c2ccc(cc2C(=O)O)CC(=O)CC1 | 8.5 | > 30 | > 30 | > 30
CC(=O)O[C@@]1(C)CCC(C)CCC[C@]2(C)[C@@H]([C@H](C)CCCC(C)C)CC[C@H]2c2ccc(cc2C)C1 (some centres undefined) | 11 | > 30 | > 30 | > 30
CC(=O)c1cc2ccc1[C@@H]1CC[C@H]([C@H](C)CCCC(C)C)[C@@]1(C)CC/C=C(/C)CC[C@](C)(O)C2 | > 30 | > 30 | > 30 | > 30
CC(C)CCC[C@@H](C)[C@H]1CC[C@H]2c3ccc(cc3CO)C[C@@H](O)CCC(C)CCC[C@]12C (some centres undefined) | > 30 | > 30 | > 30 | > 30
C/C1=C/CC[C@]2(C)[C@@H]([C@H](C)CCCC(C)C)CC[C@H]2c2ccc(cc2C=O)C[C@@H](O)CC1 | 11 | > 30 | > 30 | > 30
CC(=O)O[C@@]1(C)CC/C(C)=C\CC[C@]2(C)[C@@H]([C@H](C)CCCC(C)C)CC[C@H]2c2ccc(cc2C(C)O)C1 (some centres undefined) | > 30 | > 30 | > 30 | > 30
COC(=O)c1cc2ccc1[C@@H]1CC[C@H]([C@H](C)CCCC(C)C)[C@@]1(C)CC/C=C(/C)CC[C@H](O)C2 | > 30 | > 30 | > 30 | > 30
CC(=O)O[C@H]1CCC(C)CCC[C@]2(C)[C@@H]([C@H](C)CCCC(C)C)CC[C@H]2c2ccc(cc2C(=O)O)C1 (some centres undefined) | 7.8 | > 30 | > 30 | > 30
CC(=O)O[C@H]1CC/C(C)=C\CC[C@]2(C)[C@@H]([C@H](C)CCCC(C)C)CC[C@H]2c2ccc(cc2C(=O)O)C1 | 5.6 | > 30 | > 30 | > 30
C/C1=C/CC[C@]2(C)[C@@H]([C@H](C)CCCC(C)C)CC[C@H]2c2ccc(cc2C(C)O)C[C@@](C)(O)CC1 (some centres undefined) | > 30 | > 30 | > 30 | > 30
COC(=O)c1cc2ccc1[C@@H]1CC[C@H]([C@H](C)CCCC(C)C)[C@@]1(C)CC/C=C(/C)CCC(=O)C2 | > 30 | > 30 | > 30 | > 30
CC(C)CCC[C@@H](C)[C@H]1CC[C@H]2c3ccc(cc3C(=O)O)CC(=O)CCC(C)CCC[C@]12C (some centres undefined) | 3.4 | > 30 | 25 | > 30
C/C1=C/CC[C@]2(C)[C@@H]([C@H](C)CCCC(C)C)CC[C@H]2c2ccc(cc2CO)C[C@@H](O)CC1 | > 30 | > 30 | > 30 | > 30
CC(=O)O[C@@]1(C)CCC(C)CCC[C@]2(C)[C@@H]([C@H](C)CCCC(C)C)CC[C@H]2c2ccc(cc2CN2CCOCC2)C1 (some centres undefined) | > 30 | > 30 | > 30 | > 30
C/C1=C/CC[C@]2(C)[C@@H]([C@H](C)CCCC(C)C)CC[C@H]2c2ccc(cc2C(=O)O)CC(O)CC1 (some centres undefined) | 7.9 | > 30 | > 30 | > 30
C/C1=C/CC[C@]2(C)[C@@H]([C@H](C)CCCC(C)C)CC[C@H]2c2ccc(cc2C(=O)O)C[C@H](Oc2ccccc2)CC1 | 7.1 | > 30 | > 30 | > 30
CC(=O)CC(=O)O[C@H]1CC/C(C)=C\CC[C@]2(C)[C@@H]([C@H](C)CCCC(C)C)CC[C@H]2c2ccc(cc2C(=O)O)C1 | 7.5 | > 30 | > 30 | > 30
CC(=O)O[C@H]1CC[C@](C)(C2CC[C@@]3(C)C(CC[C@@H]3[C@H](C)CCCC(C)C)[C@@H]2CC(=O)O)C(=O)O1 (some centres undefined) | 8.7 |  |  | 
C=CC[C@]1(O)CC/C(C)=C\CC[C@]2(C)[C@@H]([C@H](C)CCCC(C)C)CC[C@H]2c2ccc(cc2C(=O)O)C1 | 9.3 | > 30 | > 30 | > 30
C/C1=C/CC[C@]2(C)[C@@H]([C@H](C)CCCC(C)C)CC[C@H]2c2ccc(cc2C=O)C[C@H](Oc2ccccc2)CC1 | 3.5 | > 30 | > 30 | > 30
CC(=O)O[C@H]1CC/C(C)=C\CC[C@]2(C)[C@@H]([C@H](C)CCCC(C)C)CC[C@H]2c2ccc(cc2C=O)C1 | 4.9 | > 30 | > 30 | > 30
C=CC[C@@]1(O)CC/C(C)=C\CC[C@]2(C)[C@@H]([C@H](C)CCCC(C)C)CC[C@H]2c2ccc(cc2C(=O)O)C1 | 8.4 | > 30 | > 30 | > 30

Source: ChEMBL document CHEMBL1148233, “Design and synthesis of macrocyclic inhibitors of phosphatase cdc25B” (Bioorg Med Chem Lett, 2004)
